Source: PMC9491098, “Discovery of novel drug-like antitubercular hits targeting the MEP pathway enzyme DXPS by strategic application of ligand-based virtual screening” (Chemical Science, 2022)
Values after ≈ are worked out from the molar mass of the structure shown. Values joined by “and” are separate entries in the source; they are usually repeats but may differ in a detail not shown here. Identical values can stand only once. Like-named read-outs stand apart in the source and are kept apart here.

Columns and labels:
IspD = details: read-out: Activity on target enzyme: IC50; cited from earlier work
P. falciparum = details: Target pathogen: P. falciparum; Fig. 1A; ref 18–26 (fosmidomycin), 15,27–29 (BITZ, TZLP); cited from earlier work
MtDXPS [1] = target: T1, MtDXPS (Mycobacterium tuberculosis, UniProt P9WNS3); assay: biochemical; details: for inhibitory activity against MtDXPS, SAR statement: SAR discussion of Table 1A–C
T1 sequence (P9WNS3 whole entry, looked up): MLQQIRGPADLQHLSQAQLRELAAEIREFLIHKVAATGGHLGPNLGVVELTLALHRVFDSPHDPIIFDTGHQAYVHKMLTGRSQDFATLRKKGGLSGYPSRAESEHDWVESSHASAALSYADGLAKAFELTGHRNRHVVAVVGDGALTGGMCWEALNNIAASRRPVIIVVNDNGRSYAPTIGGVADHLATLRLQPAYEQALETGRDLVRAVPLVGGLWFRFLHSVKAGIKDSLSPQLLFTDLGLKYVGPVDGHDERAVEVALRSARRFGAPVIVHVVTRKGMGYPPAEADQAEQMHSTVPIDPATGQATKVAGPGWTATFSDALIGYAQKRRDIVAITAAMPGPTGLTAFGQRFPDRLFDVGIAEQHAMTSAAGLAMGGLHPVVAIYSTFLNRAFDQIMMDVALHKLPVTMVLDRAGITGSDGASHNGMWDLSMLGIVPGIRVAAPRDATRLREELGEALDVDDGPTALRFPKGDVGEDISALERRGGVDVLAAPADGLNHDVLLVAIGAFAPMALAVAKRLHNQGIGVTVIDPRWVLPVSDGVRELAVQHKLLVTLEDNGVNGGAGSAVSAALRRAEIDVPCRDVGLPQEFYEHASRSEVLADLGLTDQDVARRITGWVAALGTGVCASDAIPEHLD

HEK293 = assay: toxicity against human cell lines; assay type: cell-based; details: HEK293, 48 h, read-out: Toxicity Human cell lines EC50 (μM) HEK293
mCherry-Mtb H37Rv = assay type: cell-based, Mycobacterium tuberculosis
HepG2 = assay: toxicity against human cell lines; assay type: cell-based; details: HepG2, 48 h, read-out: Toxicity Human cell lines EC50 (μM) HepG2
[2] = metabolic stability in human liver S9 fraction; details: pooled liver S9 fraction
Description: For vitro assessment of metabolic stability, 10 µL of each compound (10 µM) was
incubated with human pooled liver S9-fraction (1 mg/mL, Corning, Corning, NY, USA)
in a master mix containing 2 mM NADP, 10 mM glucose-6-phosphate, 10 U/mL
glucose-6-phosphate dehydrogenase, 1 mM UDPGA, 0.1 mM PAPS, 10 mM MgCl2.
acetonitrile containing diphenhydramine as internal standard at 4 °C. The supernatant
was used for LC-MS analysis and half life time t1/2 was calculated from decreasing
concentrations/peak areas.
LC conditions: samples were analyzed with an Ultimate 3000 HPLC (Thermo Fisher,
Waltham, MA, USA) coupled to a TSQ Quantum Access Max triple quadrupole mass
spectrometer (Thermo Fisher, Waltham, MA, USA) in SRM mode. Analysis was
performed on a Nucleodur C18 Pyramid column (3 µm, 2x150 mm, Macherey-Nagel,
Düren, Germany) with a flow of 0.6 mL/min and a water (0.1% formic acid) and
acetonitrile (0.1% formic acid) eluent system. Gradient as follows: 10% acetonitrile for
1 min, 10–90% acetonitrile over 0.7 min, 90% acetonitrile for 1.8 min, equilibration at
10% acetonitrile for 1 min.
MS conditions: calibration of mass spectrometer parameters was performed
individually for each compound:

A549 = assay: toxicity against human cell lines; assay type: cell-based; details: A549, 48 h, read-out: Toxicity Human cell lines EC50 (μM) A549
E. coli = details: Fig. 1A; cited from earlier work
DXPS = details: cited from earlier work
[3] = system: E. coli strain BL21 (DE3) pQEYAEM; assay: microbe, parasite or virus in culture; assay type: cell-based; details: Escherichia coli, Fig. 6A
[4] = system: E. coli strain BL21 (DE3) pET22b-H6[…]; assay: microbe, parasite or virus in culture; assay type: cell-based; details: Escherichia coli, Fig. 6B
IspC = details: Target enzyme: IspC; Fig. 1A; cited from earlier work
MtDXPS [5] = target: T1, MtDXPS; details: cited from earlier work
DrDXPS (WT) [6] = target: T2, DrDXPS (WT) (Deinococcus radiodurans, UniProt Q9RUB5); assay: biochemical; assay type: biochemical; details: for IC50: DrDXPS (WT) IC50, Fig. 2B; for inhibition at 100 µM: read-out: Inhibition % at 100 μM, Fig. 5E, DrDXPS (WT)
T2 sequence (Q9RUB5 whole entry, looked up): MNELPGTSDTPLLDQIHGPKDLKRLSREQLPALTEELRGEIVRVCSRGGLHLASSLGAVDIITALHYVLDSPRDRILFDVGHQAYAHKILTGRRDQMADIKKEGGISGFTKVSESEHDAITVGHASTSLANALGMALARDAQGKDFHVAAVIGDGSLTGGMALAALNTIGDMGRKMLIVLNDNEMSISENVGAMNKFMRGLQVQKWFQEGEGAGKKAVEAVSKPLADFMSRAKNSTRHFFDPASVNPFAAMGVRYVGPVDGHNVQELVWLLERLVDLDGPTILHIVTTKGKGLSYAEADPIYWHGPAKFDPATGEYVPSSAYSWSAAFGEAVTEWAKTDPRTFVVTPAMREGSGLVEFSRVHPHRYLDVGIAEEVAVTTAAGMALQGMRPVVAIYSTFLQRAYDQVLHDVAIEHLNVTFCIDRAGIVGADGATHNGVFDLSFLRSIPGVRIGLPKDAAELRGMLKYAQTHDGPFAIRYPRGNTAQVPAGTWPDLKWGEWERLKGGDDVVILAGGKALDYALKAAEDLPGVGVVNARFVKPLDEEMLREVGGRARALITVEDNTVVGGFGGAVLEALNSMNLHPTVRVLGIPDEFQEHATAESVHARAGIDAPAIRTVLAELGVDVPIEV

MtDXPS [7] = target: T1, MtDXPS; assay: biochemical
DrDXPS (WT) [8] = target: T2, DrDXPS (WT); details: pseudo-inhibitors; cited from earlier work
IspF = details: read-out: Activity on target enzyme: IC50; cited from earlier work
MtDXPS [9] = target: T1, MtDXPS; assay: microscale thermophoresis (MST) dissociation constant; assay type: binding; details: Fig. 4F
Description: ETB + A <===> ETAB : Ka2 (Ka2 is the dissociation constant of pyruvate with […]
ETA + B <===> ETAB : Kb2 (Kb2 is the dissociation constant of ThDP with DXPS) E + I <===> EI* : Ki* (Ki* is the Morrison inhibition constant of inhibitor with apoDXPS) ETAB ---> ET + P : kcat (kcat is the catalytic constant of DXPS) […]
microscale thermophoresis (MST)
MST measurements were performed on a Monolith NT.115 (NanoTemper
Technologies GmbH, Germany) instrument using red-dye-NHS fluorescent labeling.
Each purified MtDXPS sample was labeled with red-dye-NHS second generation dye, according to the supplied protocol. Measurements were performed in 100 m M Tris-HCl (pH 7.6) containing 0.05% Tween-20 and 5% DMSO in premium treated capillaries.
The final concentration of each labeled protein in the assay was 100 n M. The inhibitors were titrated in 1:1 dilutions according to the supplier’s recommendations. All binding reactions were incubated at room temperature for 30 min before loading, and then pre-incubated for 5 min at room temperature after loading into the capillaries. Experiments were performed in duplicates, using 40% LED power, medium MST power, laser on time 20 s, and laser off time 3 s. Kds of the inhibitors were extracted from raw data at a 10–20 s on time according to the manufacturer’s instructions. A denaturation test was performed to exclude any nonspecific spectral interactions between the inhibitors […]
The solutions were vortexed, and then the rest of the assay components was added in the following order: HEPES, pH = 8 (100 m M), bovine serum albumin (1 mg/mL), cysteine (2 mM), ThDP (0.325 μM), coenzyme-A (150 μM), TCEP (300 μM), pyruvate (150 μM) and MgCl2 (1 mM). […] Porcine PDH (final concentration of 0.01 U/ mL) was then added to initiate the reactions, which were monitored spectrophotometrically by measuring the […]

MtDXPS [10] = target: T1, MtDXPS
M. tuberculosis strains = assay: MIC against multiple M. tuberculosis strains, absolute concentration method on 7H10 agar; assay type: cell-based; details: Mycobacterium tuberculosis
E. coli TolC = assay: microbe, parasite or virus in culture; assay type: cell-based; details: Escherichia coli
[11] = [IPTG] 0.5 mM (E. coli IspC overexpression)
[12] = [IPTG] 0.5 mM (MtDXPS overexpression)

Cc1ccc(-n2sc3ccccc3c2=O)cc1S(=O)(=O)N1CCOCC1 [BITZ]
IC50 (IspD): 0.45 µM | EC50 (P. falciparum): 4.3 µM

Nc1ccc(/C(Cc2ccc(Cl)cc2)=N/O)c(O)c1 [Compound 25]
inhibitory activity against MtDXPS, SAR statement (MtDXPS [1]): more active than their parent molecules | Ki (MtDXPS [1]; Table 1B, oxime derivatives, MtDXPS, read-out: K i*): 0.1 ± 0.03 µM | EC50 (HEK293): 18 ± 5.5 µM | activity against M. tuberculosis strains (mCherry-Mtb H37Rv): retains some activity | EC50 (HepG2): 0.73 ± 0.12 µM | half-life at 10 µM [2]: 56 ± 0.4 min | EC50 (A549): ~50 µM

CCCCOP(=O)(O)C(C)=O [BAP, Butylacetylphosphonate]
Activity on target pathogen: MIC (E. coli): 5 µM | Ki (DXPS; read-out: Activity on target enzyme: Ki, Fig. 1A): 5.6 µM

O=CN(O)CCCP(=O)(O)O [Fosmidomycin, fosmidomycin, reference compound]
MIC ([3]; [IPTG] 0 mM): 76 ± 14 µM (≈ 13.9 µg/mL) | MIC [3, 11]: > 1000 µM | MIC ([4]; [IPTG] 0 mM): 56 ± 8 µM (≈ 10.3 µg/mL) | MIC [4, 12]: 59 ± 10 µM (≈ 10.8 µg/mL) | IC50 (IspC): 0.35 µM | EC50 (P. falciparum): 0.98 µM

Cc1ncc(Cc2csc(CCO)c2C)c(N)n1 [DZT, deazathiamine, reference compound]
activity against MtDXPS (MtDXPS [5]): not active | IC50 (DrDXPS (WT) [6]; [ThDP] 0.1 μM (1.6x Km), [PYR] 0.5 mM (2.4x), [D-GAP] 0.5 mM (2.9x)): 273 ± 16 µM | IC50 (DrDXPS (WT) [6]; [ThDP] 0.5 μM (8x Km), [PYR] 0.5 mM (2.4x), [D-GAP] 1.0 mM (5.8x)): 1210 ± 156 µM | IC50 (DrDXPS (WT) [6]; [ThDP] 0.5 μM (8x Km), [PYR] […] (1.2x), [D-GAP] 0.5 mM (2.9x)): 486 ± 136 µM | IC50 (DrDXPS (WT) [6]; reference condition [ThDP] 0.5 μM (8x Km), [PYR] 0.5 mM (2.4x), [D-GAP] 0.5 mM (2.9x)): 845 ± 177 µM | mode of inhibition on DrDXPS (DrDXPS (WT) [6]; MOI study, Fig. 2B): competitive with ThDP, PYR and D-GAP | IC50 (MtDXPS [7]): > 4000 µM | inhibition of DrDXPS (DrDXPS (WT) [8]): weak inhibitor

CCOC(=O)C1=C(C)N=c2s/c(=C\c3cc(Br)c(O)c(Br)c3)c(=O)n2C1c1cccs1 (stereo not drawn) [TZLP]
EC50 (P. falciparum): 1.5 µM | IC50 (IspF): 9.6 µM

CC1(C)C(=O)ON(Cc2ccccc2Cl)C1=O [Ketoclomazone, ketoclomazone]
IC50 (DXPS; read-out: Activity on target enzyme: IC50, Fig. 1A): 1 µM

OCc1cn(Cc2ccc(Cl)c(Cl)c2)c2ccc(F)cc12 [Compound 17]
inhibitory activity against MtDXPS, SAR statement (MtDXPS [1]): more active than their parent molecules | Ki (MtDXPS [1]; Table 1A, indole derivatives, MtDXPS, read-out: K i*): 0.4 ± 0.06 µM | EC50 (HEK293): > 50 µM | activity against M. tuberculosis strains (mCherry-Mtb H37Rv): no activity | EC50 (HepG2): > 50 µM | half-life at 10 µM [2]: 27 ± 10 min | EC50 (A549): > 50 µM

OCc1cn(Cc2ccc(Cl)c(Cl)c2)c2ccccc12 [Compound 7]
MIC ([3]; [IPTG] 0 mM): 13 ± 1 µM (≈ 3.98 µg/mL) | MIC [3, 11]: 10 ± 2 µM (≈ 3.06 µg/mL) | Ki (MtDXPS [1]; K i* (μM), Table 1A, indole derivatives, MtDXPS): 1.3 ± 0.2 µM | Ki (MtDXPS [1]; Morrison constant Ki* against MtDXPS, two-step tight-binding Morrison model, Dynafit, text and Fig. 4C–E): 1.29 µM | MIC ([4]; [IPTG] 0 mM): 10 ± 3 µM (≈ 3.06 µg/mL) | MIC [4, 12]: 14 ± 2 µM (≈ 4.29 µg/mL) | EC50 (HEK293): 16 ± 7 µM | EC50 (HepG2): 0.8 ± 0.2 µM | Kd (MtDXPS [9]): 1.37 µM | inhibition at 100 µM (DrDXPS (WT) [6]; [ThDP] 0.1 μM (1.6x Km), [PYR] 0.5 mM (2.4x), [D-GAP] […] (1.5x)): 63 ± 4% | inhibition at 100 µM (DrDXPS (WT) [6]; [ThDP] 0.1 μM (1.6x Km), [PYR] […] (1.2x), [D-GAP] 0.5 mM (2.9x)): 51 ± 3% | inhibition at 100 µM (DrDXPS (WT) [6]; [ThDP] 0.1 μM (1.6x Km), [PYR] […] (1.2x), [D-GAP] […] (1.5x)): 61 ± 5% | inhibition at 100 µM (DrDXPS (WT) [6]; [ThDP] 0.2 μM (3.2x Km), [PYR] […] (1.2x), [D-GAP] […] (1.5x)): 48 ± 4% | hit validation (false-positive check) (MtDXPS [10]): true inhibitors | MIC (M. tuberculosis strains; read-out: Antitubercular activity Strain & MIC (μM) A): 10 µM (≈ 3.06 µg/mL) | MIC (M. tuberculosis strains; read-out: Antitubercular activity Strain & MIC (μM) B): 10 µM (≈ 3.06 µg/mL) | MIC (M. tuberculosis strains; read-out: Antitubercular activity Strain & MIC (μM) C): 5 µM (≈ 1.53 µg/mL) | MIC (M. tuberculosis strains; read-out: Antitubercular activity Strain & MIC (μM) D): 5 to 10 µM (≈ 1.53 to 3.06 µg/mL) | MIC (M. tuberculosis strains; read-out: Antitubercular activity Strain & MIC (μM) E): 5 to 10 µM (≈ 1.53 to 3.06 µg/mL) | MIC (M. tuberculosis strains; read-out: Antitubercular activity Strain & MIC (μM) F): 5 to 10 µM (≈ 1.53 to 3.06 µg/mL) | MIC (E. coli TolC): 22 ± 1 µM (≈ 6.74 µg/mL) | half-life at 10 µM [2]: 6 ± 2 min | EC50 (A549): ~50 µM | IC50 (MtDXPS [7]; IC50 (μM)): 34 ± 4 µM | IC50 (MtDXPS [7]; IC50 against MtDXPS): 34 µM and 82 µM | IC50 (MtDXPS [7]; IC50 against MtDXPS (MOI study)): 12 µM and 34 µM and 33 µM and 59 µM | mode of inhibition on MtDXPS (MtDXPS [7]; MOI study, comparison of IC50 under varied [ThDP], [PYR], [D-GAP]): competitive with ThDP and D-GAP, but non-competitive with PYR | equilibration time (slow-binding) (MtDXPS [7]; time-dependent progress curves, Fig. 4A, inhibitor 100 µM): ~100 s
